Source: patent US20200399238A1, “THERAPEUTIC AURONES” (MIDDLE TENNESSEE STATE UNIVERSITY, priority 2016, published 2020)

Experiments:
[1] = tested on: C. glabrata (ATCC strain 66032); test: Antifungal microdilution broth assay (PrestoBlue), C. glabrata; assay type: cell-based, Candida glabrata; conditions: Nakaseomyces glabratus, ATCC66032; Table 5
Method: Sigma-Aldrich) was used as the base medium for testing. […] solution of morpholinepropanesulfonic acid (MOPS; Sigma-Aldrich) was added to the RPMI to a final concentration of 0.165 M for buffering (RPMI-MOPS). This medium was adjusted to a pH of 7.0 with 10 M NaOH and filter sterilized. C. albicans (ATCC strain 90028), C. [NT] strain 66032), and C. tropicalis (ATCC strain 750) were cultured on potato dextrose agar (Sigma-Aldrich) plates, and incubated at 35° C. for 24 hours. For antifungal testing, overnight colonies were adjusted to 1.5×10^3 cells/mL, hereafter referred to as the test inoculum. […] Reduction of the compound from resazurin to resorufin is proportional to the number of metabolically active cells and can be quantified by measuring relative fluorescence units (RFUs). […] PrestoBlue was added to a final concentration of 10% in each well and fluorescence read at 560 nm excitation and 590 nm emission, per manufacturer instructions, using a SpectraMax M2e spectrophotometer (Molecular Devices, LLC, Sunnyvale, Calif.). […] The calculated Z', as described below, was compared to RFU readings and the optimal PrestoBlue incubation time was determined to be 75 minutes. IC50 determination was calculated using GraphPad Prism version 7.01 for Windows (GraphPad Software, Inc., La Jolla, Calif.) from the RFUs at dilution points. […]

S. cerevisiae = test: Antifungal microdilution broth assay, S. cerevisiae; assay type: cell-based; conditions: Saccharomyces cerevisiae; Table 5
From the text: (§1) A microdilution broth method (CLSI, Reference Method for Broth Dilution Antifungal Susceptibility Testing of Yeasts, Approved Standard-Third Edition, Clinical Laboratory Standards Institute, Wayne, Pa., 2008) was followed with some modifications for the testing of potential antifungal compounds Corning CellGro RPMI 1640 with glutamine, without bicarbonate buffer, with phenol red (RPMI; Sigma-Aldrich) was used as the base medium for testing. A 1 M solution of morpholinepropanesulfonic acid (MOPS; Sigma-Aldrich) was added to the RPMI to a final concentration of 0.165 M for buffering (RPMI-MOPS). This medium was adjusted to a pH of 7.0 with 10 M NaOH and filter sterilized.
(§2) PrestoBlue® (Life Technologies, Invitrogen, Carlsbad, Calif.), a resazurin-based cell viability reagent that, in metabolically active cells, is reduced from blue, non-fluorescent resazurin, to red, fluorescent resorufin, was used to assess inhibition of yeast growth by the aurones. Reduction of the compound from resazurin to resorufin is proportional to the number of metabolically active cells and can be quantified by measuring relative fluorescence units (RFUs). […]
(§3) IC50 determination was calculated using GraphPad Prism version 7.01 for Windows (GraphPad Software, Inc., La Jolla, Calif.) from the RFUs at dilution points. […]

T. rubrum = test: Antifungal microdilution broth assay, T. rubrum; assay type: cell-based; conditions: Trichophyton rubrum; Table 5
From the text: as §1, §2, §3

p65 (NF-κB) = test: Indirect immunofluorescence for NF-κB nuclear translocation, THP-1; assay type: cell-based, human; conditions: pre-treatment with 50 aurone 1; THP-1, LPS 30 min
From the text: Bay 11-7082 is a compound that inhibits LPS-induced activation of IKKα/β, thereby suppressing downstream IκBα phosphorylation/degradation and p65 nuclear translocation and was used as a positive control (Catalan, Fernandez-Castillejo et al. 2012). Treated cells were fixed, permeabilized, blocked, and stained with p65 (NF-κB) primary antibody, Dylight 488 conjugated secondary antibody, and Hoechst 33342 dye, sequentially. The Hoechst and DyLight fluorophores detect changes in nuclear morphology (blue fluorescence) and NF-κB distribution (green fluorescence), respectively. Nuclear Translocation Bioapplication software on the Arrayscan VTI reader was used for image acquisition and data analysis (Thermo Fisher Scientific, Waltham, Mass., USA). For each well, at least 400 cells were automatically acquired and analyzed. The translocation index was calculated by measuring the average intensity difference of NF-κB between the identified cytoplasmic region and nuclear region.

| Compound | IC50 [1] [µM] | IC50 (S. cerevisiae) [µM] | IC50 (T. rubrum) [µM] | cytoplasmic-to-nuclear translocation of p65 (p65 (NF-κB)) |
| --- | --- | --- | --- | --- |
| COc1ccc(/C=C2\Oc3c(ccc(O)c3O)C2=O)cc1O [Aurone 1009, (Z)-6,7-dihydroxy-2-(3-hydroxy-4-methoxybenzylidene)benzofuran-3(2H)-one] | 11 | 26 | 49 | – |
| O=C1/C(=C/c2ccc(CO)o2)Oc2ccccc21 [aurone 1] | – | – | – | capable of blocking cytoplasmic-to-nuclear translocation of p65 |
